Data: the NIST ThermoML archive (doi:10.1016/j.jct.2008.04.013)
Values joined by “and” are separate entries in the source; they are usually repeats but may differ in a detail not shown here. Equal entries are not always repeated.

Conditions: Liquid, Calculated from knudsen effusion weight loss

Cc1ccsc1C(=O)O [3-methyl-2-thiophenecarboxylic acid]
Conditions | vapor or sublimation pressure
312.13 K | 0.000104 kPa and 0.000102 kPa
314.2 K | 0.000129 kPa and 0.00013 kPa and 0.000126 kPa
316.22 K | 0.000164 kPa and 0.000162 kPa and 0.000159 kPa
318.13 K | 0.000205 kPa and 0.000204 kPa and 0.000209 kPa
320.19 K | 0.000264 kPa and 0.000261 kPa and 0.000254 kPa
322.21 K | 0.000323 kPa and 0.00032 kPa and 0.000314 kPa
324.14 K | 0.000412 kPa and 0.000407 kPa and 0.000418 kPa
326.18 K | 0.000507 kPa and 0.000503 kPa
328.21 K | 0.000636 kPa and 0.00063 kPa
330.15 K | 0.000798 kPa and 0.000786 kPa and 0.000769 kPa
332.23 K | 0.000984 kPa and 0.000972 kPa and 0.00094 kPa
334.2 K | 0.001191 kPa and 0.001174 kPa and 0.001146 kPa

CC(=O)c1ccc(C(=O)O)s1 [5-acetyl-2-thiophenecarboxylic acid]
Conditions | vapor or sublimation pressure
364.15 K | 0.00011 kPa and 0.000108 kPa and 0.000105 kPa
366.18 K | 0.000133 kPa and 0.000135 kPa and 0.000129 kPa
368.18 K | 0.000163 kPa and 0.00016 kPa
370.15 K | 0.000205 kPa and 0.0002 kPa and 0.000208 kPa
372.17 K | 0.000252 kPa and 0.00025 kPa and 0.000244 kPa
374.17 K | 0.000303 kPa and 0.000307 kPa and 0.000298 kPa
376.15 K | 0.000392 kPa and 0.000387 kPa and 0.000376 kPa
378.17 K | 0.000471 kPa and 0.000472 kPa and 0.000451 kPa
380.18 K | 0.000578 kPa and 0.000568 kPa and 0.000548 kPa
382.18 K | 0.000707 kPa and 0.000698 kPa and 0.000683 kPa
384.18 K | 0.000819 kPa and 0.000846 kPa and 0.000816 kPa
386.17 K | 0.001019 kPa and 0.001018 kPa and 0.000988 kPa

Cc1ccc(C(=O)O)s1 [5-methyl-2-thiophenecarboxylic acid]
Conditions | vapor or sublimation pressure
316.29 K | 9e-05 kPa and 8.8e-05 kPa and 8.9e-05 kPa
318.25 K | 0.000113 kPa and 0.000112 kPa and 0.00011 kPa
320.12 K | 0.000139 kPa
322.28 K | 0.00018 kPa and 0.000183 kPa
324.24 K | 0.000229 kPa and 0.000226 kPa and 0.000222 kPa
326.12 K | 0.000273 kPa and 0.000278 kPa and 0.000276 kPa
328.28 K | 0.000341 kPa and 0.000356 kPa and 0.000355 kPa
330.22 K | 0.000441 kPa and 0.000439 kPa and 0.000427 kPa
332.11 K | 0.00054 kPa and 0.000539 kPa
334.28 K | 0.0007 kPa and 0.000697 kPa and 0.00069 kPa
336.22 K | 0.000859 kPa and 0.000855 kPa and 0.000843 kPa
338.11 K | 0.001049 kPa and 0.001053 kPa and 0.001028 kPa
